According to patent publication US12521393B2, “Cytotoxicity targeting chimeras for CCR2-expressing cells” (GLAXOSMITHKLINE INTELLECTUAL PROPERTY DEVELOPMENT LIMITED, priority 2021, dated 2026):

System: endogenous target monocytes in human PBMC
Experiment: PBMC ex vivo monocyte depletion flow cytometry assay (Example 200)
Type: cell-based
Details: with anti-cotinine antibody (SEQ ID NO: 11/12), 18-24 hours, EC50 in molar, read-out: Ex Vivo Depletion Assay pEC50 (converted)
Outline: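 Monocyte depletion is reported as pEC50, averaged or given individually across runs, and read by flow cytometry staining CD45, CD14 and CD4 with a viability dye. Compounds, diluted four-fold over 11 points from 1 mM DMSO stocks, were combined with 30 μg/mL Fc-enhanced anti-cotinine antibody and human PBMC, then incubated 18-24 h at 37° C.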

Row | SMILES | EC50 [nM]
1 | CC(C)N(C)[C@@H]1CC[C@H](N2CC[C@H](Nc3ncnc4ccc(C(F)(F)F)cc34)C2=O)[C@H](NC(=O)[C@H]2CC[C@H](NC(=O)CCCO[C@H]3CC[C@H](OCCNC(=O)[C@H]4CC(=O)N(C)[C@@H]4c4cccnc4)CC3)CC2)C1 [Example 1, (2S,3S)-N-(2-(((1R,4S)-4-(4-(((1R,4R)-4-(((1R,2S,5R)-5-(Isopropyl(methyl)amino)-2-((S)-2-oxo-3-((6-(trifluoromethyl)quinazolin-4-yl)amino)pyrrolidin-1-yl)cyclohexyl)carbamoyl)cyclohexyl)amino)-4-oxobutoxy)cyclohexyl)oxy)ethyl)-1-methyl-5-oxo-2-(pyridin-3-yl)pyrrolidine-3-carboxamide] | 1.58
2 | CC(C)N(C)[C@@H]1CC[C@H](N2CC[C@H](Nc3ncnc4ccc(C(F)(F)F)cc34)C2=O)[C@H](NC(=O)[C@H]2CC[C@@H](NC(=O)CCCO[C@H]3CC[C@H](OCCNC(=O)[C@H]4CC(=O)N(C)[C@@H]4c4cccnc4)CC3)CC2)C1 [Example 5, (2S,3S)-N-(2-(((1R,4S)-4-(4-(((1S,4S)-4-(((1R,2S,5R)-5-(Isopropyl(methyl)amino)-2-((S)-2-oxo-3-((6-(trifluoromethyl)quinazolin-4-yl)amino)pyrrolidin-1-yl)cyclohexyl)carbamoyl)cyclohexyl)amino)-4-oxobutoxy)cyclohexyl)oxy)ethyl)-1-methyl-5-oxo-2-(pyridin-3-yl)pyrrolidine-3-carboxamide] | 0.398
3 | CC(C)N(C)[C@@H]1CC[C@H](N2CC[C@H](Nc3ncnc4ccc(C(F)(F)F)cc34)C2=O)[C@H](NC(=O)CCOCCNC(=O)CCCO[C@H]2CC[C@H](OCCNC(=O)[C@H]3CC(=O)N(C)[C@@H]3c3cccnc3)CC2)C1 [Example 7, (2S,3S)-N-(2-(((1r,4S)-4-(4-((2-(3-(((1R,2S,5R)-5-(Isopropyl(methyl)amino)-2-((S)-2-oxo-3-((6-(trifluoromethyl)quinazolin-4-yl)amino)pyrrolidin-1-yl)cyclohexyl)amino)-3-oxopropoxy)ethyl)amino)-4-oxobutoxy)cyclohexyl)oxy)ethyl)-1-methyl-5-oxo-2-(pyridin-3-yl)pyrrolidine-3-carboxamide] | 0.501
4 | CC(C)N(C)[C@@H]1CC[C@H](N2CC[C@H](Nc3ncnc4ccc(C(F)(F)F)cc34)C2=O)[C@H](NC(=O)[C@H]2CC[C@@H](NC(=O)CCOCCOCCNC(=O)CCNC(=O)[C@H]3CC(=O)N(C)[C@@H]3c3cccnc3)CC2)C1 [Example 16, (2S,3S)-N-(3-((2-(2-(3-(((1S,4s)-4-(((1R,2S,5R)-5-(Isopropyl(methyl)amino)-2-((S)-2-oxo-3-((6-(trifluoromethyl)quinazolin-4-yl)amino)pyrrolidin-1-yl)cyclohexyl)carbamoyl)cyclohexyl)amino)-3-oxopropoxy)ethoxy)ethyl)amino)-3-oxopropyl)-1-methyl-5-oxo-2-(pyridin-3-yl)pyrrolidine-3-carboxamide] | 0.316
5 | CC(C)N(C)[C@@H]1CC[C@H](N2CC[C@H](Nc3ncnc4ccc(C(F)(F)F)cc34)C2=O)[C@H](NC(=O)[C@H]2CC[C@@H](NC(=O)CCCC(=O)NCCCOCCCNC(=O)[C@H]3CC(=O)N(C)[C@@H]3c3cccnc3)CC2)C1 [Example 18, N^1-((1S,4s)-4-(((1R,2S,5R)-5-(Isopropyl(methyl)amino)-2-((S)-2-oxo-3-((6-(trifluoromethyl)quinazolin-4-yl)amino)pyrrolidin-1-yl)cyclohexyl)carbamoyl)cyclohexyl)-N^5-(3-(3-((2S,3S)-1-methyl-5-oxo-2-(pyridin-3-yl)pyrrolidine-3-carboxamido)propoxy)propyl)glutaramide] | 0.501
6 | CC(C)N(C)[C@@H]1CC[C@H](N2CC[C@H](Nc3ncnc4ccc(C(F)(F)F)cc34)C2=O)[C@H](NC(=O)[C@H]2CC[C@H](NC(=O)CCCC(=O)NCCCOCCCNC(=O)[C@H]3CC(=O)N(C)[C@@H]3c3cccnc3)CC2)C1 [Example 19, N1-((1R,4r)-4-(((1R,2S,5R)-5-(Isopropyl(methyl)amino)-2-((S)-2-oxo-3-((6-(trifluoromethyl)quinazolin-4-yl)amino)pyrrolidin-1-yl)cyclohexyl)carbamoyl)cyclohexyl)-N5-(3-(3-((2S,3S)-1-methyl-5-oxo-2-(pyridin-3-yl)pyrrolidine-3-carboxamido)propoxy)propyl)glutaramide] | 0.794
7 | CN1C(=O)C[C@H](C(=O)NCCOCCOCCOCCC(=O)N[C@H]2CC[C@@H](C(=O)N[C@@H]3C[C@H](NC(C)(C)C)CC[C@@H]3N3CC[C@H](Nc4ncnc5ccc(C(F)(F)F)cc45)C3=O)CC2)[C@H]1c1cccnc1 [Example 23, (2S,3S)-N-(2-(2-(2-(3-(((1S,4s)-4-(((1R,2S,5R)-5-(tert-Butylamino)-2-((S)-2-oxo-3-((6-(trifluoromethyl)quinazolin-4-yl)amino)pyrrolidin-1-yl)cyclohexyl)carbamoyl)cyclohexyl)amino)-3-oxopropoxy)ethoxy)ethoxy)ethyl)-1-methyl-5-oxo-2-(pyridin-3-yl)pyrrolidine-3-carboxamide] | 2
8 | CC(C)N(C)[C@@H]1CC[C@H](N2CC[C@H](Nc3ncnc4ccc(C(F)(F)F)cc34)C2=O)[C@H](NC(=O)[C@H]2C[C@@H](NC(=O)CCOCCOCCOCCNC(=O)[C@H]3CC(=O)N(C)[C@@H]3c3cccnc3)C2)C1 [Example 24, (2S,3S)-N-(2-(2-(2-(3-(((1S,3s)-3-(((1R,2S,5R)-5-(Isopropyl(methyl)amino)-2-((S)-2-oxo-3-((6-(trifluoromethyl)quinazolin-4-yl)amino)pyrrolidin-1-yl)cyclohexyl)carbamoyl)cyclobutyl)amino)-3-oxopropoxy)ethoxy)ethoxy)ethyl)-1-methyl-5-oxo-2-(pyridin-3-yl)pyrrolidine-3-carboxamide] | 1.26
9 | CC(C)N(C)[C@@H]1CC[C@H](N2CC[C@H](Nc3ncnc4ccc(C(F)(F)F)cc34)C2=O)[C@H](NC(=O)[C@H]2CC[C@@H](NC(=O)CCOCCOCCOCCNC(=O)[C@H]3CC(=O)N(C)[C@@H]3c3cccnc3)CC2)C1 [Example 28, (2S,3S)-N-(2-(2-(2-(3-(((1S,4s)-4-(((1R,2S,5R)-5-(Isopropyl(methyl)amino)-2-((S)-2-oxo-3-((6-(trifluoromethyl)quinazolin-4-yl)amino)pyrrolidin-1-yl)cyclohexyl)carbamoyl)cyclohexyl)amino)-3-oxopropoxy)ethoxy)ethoxy)ethyl)-1-methyl-5-oxo-2-(pyridin-3-yl)pyrrolidine-3-carboxamide] | 1
10 | CC(C)N(C)[C@@H]1CC[C@H](N2CC[C@H](Nc3ncnc4ccc(C(F)(F)F)cc34)C2=O)[C@H](NC(=O)[C@H]2CC[C@H](NC(=O)CCOCCOCCOCCNC(=O)[C@H]3CC(=O)N(C)[C@@H]3c3cccnc3)CC2)C1 [Example 30, (2S,3S)-N-(2-(2-(2-(3-(((1R,4r)-4-(((1R,2S,5R)-5-(Isopropyl(methyl)amino)-2-((S)-2-oxo-3-((6-(trifluoromethyl)quinazolin-4-yl)amino)pyrrolidin-1-yl)cyclohexyl)carbamoyl)cyclohexyl)amino)-3-oxopropoxy)ethoxy)ethoxy)ethyl)-1-methyl-5-oxo-2-(pyridin-3-yl)pyrrolidine-3-carboxamide] | 2.51
